According to patent US9643936B1, “Form of tribenuron-methyl, a process for its preparation and use of the same” (ROTAM AGROCHEM INTERNATIONAL COMPANY LIMITED, priority 2015, dated 2017):

Key:
Assay type in all cases: physicochemical
[1] = Viscosity (stated finding, no method given)
[2] = Determining water solubility (pH 7 buffer, HPLC of supernatant); conditions: for Concentration measured by HPLC after treatment, %: pH 7 buffer, 20° C.
Experimental: A stock pH 7 buffer solution was prepared by adding aqueous sodium hydroxide solution (0.1 M, 145 mL) to aqueous potassium dihydrogen phosphate solution (0.1 M, 250 mL), and then adding sufficient distilled water to adjust the final volume to 500 mL. At least 1 time and up to about 5 times the amount of tribenuron-methyl needed for saturation was added to a mixing vessel containing stock buffer solution at the test temperature (e.g., 20° C.). The mixture was magnetically stirred in the dark while being maintained at the test temperature. Samples were periodically removed for analysis. The samples were centrifuged using a high speed, temperature-controlled centrifuge at the test temperature for about 20 minutes at >12000 G to remove suspended particles. An aliquot of each supernatant was taken for analysis. The concentration of tribenuron-methyl in the supernatant was determined by a high pressure liquid chromatography (HPLC) with a reversed phase chromatography column and UV detection. The method should include development of best-fit calibration curves based on at least three standards using linear regression analysis. Samples were successively withdrawn from the mixing vessel and analyzed until three successive samples show little or no variation in concentration. The test is preferably replicated to ensure accuracy.

[3] = Cleanout test (residual tribenuron-methyl in acetonitrile extract of rinsed bottle); conditions: for Cleanout rating, % (concentration of tribenuron-methyl in the acetonitrile solution): lower rating = more effective cleanout
Experimental: The cleanout test was conducted by dispersing in water a sample to produce a concentration that is normally used when applying the herbicide: 25% tribenuron-methyl. The sample was added to tap water (300 mL) in a 400 mL beaker and magnetically stirred for 2 minutes. The mixture was then stirred for 2 minutes, whereupon the resulting dispersion was dispensed in three 100 mL aliquots to 4-oz (118 mL) polyethylene bottles. The bottles were capped, inverted twice and allowed to stand overnight.
After standing overnight, each individual bottle was inverted twice and the liquid contents were then poured out. Tap water (10 mL) was added and the bottle was inverted until all sediment was re-suspended, whereupon the contents were poured out. Tap water (100 mL) was added and the bottle was inverted twice and then allowed to stand undisturbed for 10 minutes. The bottle was inverted twice more and the contents were poured out. Acetonitrile (10 mL) was added to the bottle to extract any remaining material. The acetonitrile solution was analyzed by reversed-phase liquid chromatography with UV detection. The cleanout rating (the concentration of tribenuron-methyl herbicide in the acetonitrile solution) is reported in % in Table 6 below.

[4] = OD formulation, measured vs original concentration 40%
[5] = OD formulation, original concentration 40%
[6] = SG formulation, measured vs original concentration 25%
[7] = SG formulation, original concentration 25%
[8] = WG formulation, measured vs original concentration 25%
[9] = WG formulation, original concentration 25%

Structure (SMILES) | Viscosity (in words) ([1]; listed as tribenuron-methyl in amorphous state) | Solubility [2, 4] [%] | Concentration measured by HPLC after treatment, % [2, 5] [%] | Solubility [2, 6] [%] | Concentration measured by HPLC after treatment, % [2, 7] [%] | Solubility [2, 8] [%] | Concentration measured by HPLC after treatment, % [2, 9] [%] | Cleanout rating, % (concentration of tribenuron-methyl in the acetonitrile solution) ([3]; OD formulation, prepared in Example 1) [%] | Cleanout rating, % (concentration of tribenuron-methyl in the acetonitrile solution) ([3]; SG formulation, prepared in Example 1) [%] | Cleanout rating, % (concentration of tribenuron-methyl in the acetonitrile solution) ([3]; WG formulation) [%] | Viscosity (in words) ([1]; listed as crystalline modification I of tribenuron-methyl) | Solubility (in words) ([2]; compared with amorphous tribenuron-methyl) | Cleanout rating, % (concentration of tribenuron-methyl in the acetonitrile solution) ([3]; OD formulation) [%] | Cleanout rating, % (concentration of tribenuron-methyl in the acetonitrile solution) ([3]; SG formulation) [%] | Cleanout properties (in words) ([3]; compared with known amorphous tribenuron-methyl product)
COC(=O)c1ccccc1S(=O)(=O)NC(=O)N(C)c1nc(C)nc(OC)n1 [Amorphous tribenuron-methyl (prepared in Example 1)] [methyl 2-[4-methoxy-6-methyl-1,3,5-triazin-2-yl(methyl)carbamoylsulfamoyl]benzoate, reference compound] | highly viscous | 35 | 14 | 60 | 15 | 48 | 12 | 26 | 10 | 13 |  |  |  |  | 
COC(=O)c1ccccc1S(=O)(=O)NC(=O)N(C)c1nc(C)nc(OC)n1 [Tribenuron-methyl, crystalline modification I, 98% (prepared] [methyl 2-[4-methoxy-6-methyl-1,3,5-triazin-2-yl(methyl)carbamoylsulfamoyl]benzoate] |  | 88 | 35 | 99.6 | 24.9 | 92 | 23 |  |  | 2 | significant decrease in its viscosity | significant increase in its solubility | 5 | 0.1 | markedly superior cleanout properties
